Measurements from US20260206761A1, “HETEROARYL-TRIAZOLE COMPOUNDS AS PESTICIDES” (Bayer Aktiengesellschaft, priority 2019, published 2026).

Experiments:
Assay type in all cases: in vivo
[1] = system: larvae of the southern green stink bug (Nezara viridula); test: Nezara viridula spray test; details: 96 h, after 4 days; for mortality at 100 g/ha: application rate 100 g/ha; for mortality at 500 g/ha: application rate 500 g/ha
Outline: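 Larva-infested barley (Hordeum vulgare) plants received a spray of test solution prepared from an acetone/DMF concentrate diluted in emulsifier-containing water (1000 ppm). Percent kill read 4 days later; 0% means no stink bugs dead.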

[2] = system: green peach aphid (Myzus persicae); test: Myzus persicae oral test; details: 120 h, application rate 4 ppm, after 5 days
Outline: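 Readout: % mortality at day 5, where 100% = all aphids dead and 0% = none dead. Feeding via parafilm membrane over compound in IPL41 medium (33%+15% sugar); mixed-age population. Stock in acetone (1:100 w/w), water-diluted.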

[3] = system: adult cat fleas (Ctenocephalides felis); test: Ctenocephalides felis in-vitro contact test, adult cat flea; details: application rate 5 μg/cm^2 (=500 g/ha), after 48 hours, read-out: activity (efficacy: fleas dead or moribund)
Procedure: Ctenocephalides felis—In-Vitro Contact Tests Adult Cat Flea
9 mg compound is solved in 1 mL acetone and diluted with acetone to the desired concentration. 250 μL of the test solution is filled in 25 mL glass test tubes and homogeneously distributed on the inner walls by rotation and tilting on a shaking device (2 h at 30 rpm). With a compound concentration of 900 ppm, an inner surface of 44.7 cm^2 and a homogeneous distribution, a dose of […] is achieved.
After the solvent has evaporated, each test tube is filled with 5-10 adult cat fleas (Ctenocephalides felis), closed with a perforated lid and incubated in a lying position at room temperature and relative humidity. After 48 hours efficacy is determined. The fleas are patted on the ground of the tubes and are incubated on a heating plate at 45-50° C. for at most 5 minutes. Immotile or uncoordinated moving fleas, which are not able to escape the heat by climbing upwards, are marked as dead or moribund.
An efficacy of 100% means all fleas are dead or moribund; 0% means no fleas are dead or moribund.

[4] = system: larvae of the banded cucumber beetle (Diabrotica balteata); test: Diabrotica balteata spray test; details: 168 h, after 7 days, read-out: activity (efficacy: seedlings grown); for pest or weed control at 100 g/ha: application rate 100 g/ha (=32 pg/well)
Outline: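 Read-out is % efficacy at day 7, 0% meaning no seedling growth and 100% growth equal to uninfested untreated controls. Test solutions (acetone/DMF concentrate diluted with water carrying 1000 ppm emulsifier) were sprayed onto 1-day-germinated wheat seeds, 5 per well, before infestation with 10-20 larvae.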

[5] = system: adult unfed cat fleas (Ctenocephalides felis); test: Ctenocephalides felis oral test; details: 48 h, read-out: activity (mortality)
Outline: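 About 20 adult unfed fleas fed through parafilm on cattle blood containing compound (DMSO stock diluted in blood), blood held at 37 °C and fleas at room temperature. Mortality (%) scored after 2 days.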

[6] = system: adult engorged female ticks (Rhipicephalus microplus); test: Rhipicephalus (Boophilus) microplus injection test; details: 168 h, egg deposition after 7 days, read-out: activity (efficacy: infertile eggs); for pest or weed control at 4 pg: application rate 4 pg/animal; for pest or weed control at 0.02 mg: application rate 20 μg/animal
Outline: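 Compound in DMSO (10 mg per 0.5 mL, then diluted with DMSO to test concentration); 1 μL injected into the abdomen of each of five engorged females, then held in a climate chamber. Fertile egg deposition checked at 7 days; efficacy 100% = all eggs infertile, 0% = all fertile.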

[7] = system: adult brown dog ticks (Rhipicephalus sanguineus); test: Rhipicephalus sanguineus in-vitro contact test, adult brown dog ticks; details: after 48 hours, read-out: activity (efficacy: ticks dead or moribund); for pest or weed control at 100 g/ha: application rate 1 pg/cm^2 (=100 g/ha); for pest or weed control at 5 µg/cm2, 500 g/ha: application rate 5 μg/cm^2 (=500 g/ha)
Outline: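 Efficacy is % of adult ticks dead or moribund 48 h after confinement at room temperature in tubes wall-coated from acetone (5 μg/cm² at 900 ppm). Scoring by heat challenge at 45-50 °C up to 5 min; immotile or uncoordinated ticks failing to climb count as affected.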

[8] = system: Rhipicephalus microplus larvae (strain Parkhurst, resistant against synthetic pyrethroids); test: Rhipicephalus (Boophilus) microplus in-vitro contact test, larval cattle tick; details: after 48 hours, read-out: activity (efficacy: larvae dead or moribund); for pest or weed control at 100 g/ha: application rate 1 pg/cm^2 (=100 g/ha); for pest or weed control at 500 g/ha: application rate 5 pg/cm^2 (=500 g/ha)
Outline: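 Larvae (20-50 per tube) exposed to dry compound film on glass tube walls, 5 μg/cm^2 at 900 ppm, applied from acetone. After 48 h at 27° C./85% RH, tubes tapped and negative geotaxis scored; efficacy as percent dead or moribund larvae.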

[9] = system: fall armyworm larvae (Spodoptera frugiperda); test: Spodoptera frugiperda spray test; details: 168 h, read-out: activity (mortality)
Outline: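 Larvae of fall armyworm placed on dried maize leaf sections previously sprayed with emulsified compound (acetone/DMF solvent, water with 1000 ppm emulsifier). Percent of caterpillars killed recorded on day 7, 0–100% scale.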

[10] = system: green peach aphid (Myzus persicae); test: Myzus persicae spray test; details: 120 h, after 5 days; for mortality at 100 g/ha: application rate 100 g/ha
Procedure: Myzus persicae—Spray Test
Solvent: 78.0 parts by weight acetone • 1.5 parts by weight dimethylformamide
Emulsifier: alkylarylpolyglycol ether
To produce a suitable preparation of active compound, 1 part by weight of active compound is mixed with the stated amount of solvents and is diluted with water, containing an emulsifier concentration of 1000 ppm, to the desired concentration. Further test concentrations are prepared by dilution with emulsifier containing water.
Chinese cabbage (Brassica pekinensis) leaf disks infected with all instars of the green peach aphid (Myzus persicae), are sprayed with a preparation of the active ingredient of the desired concentration.
After 5 days mortality in % is determined. 100% means all aphids have been killed and 0% means none of the aphids have been killed.

| SMILES | mortality at 100 g/ha [1] [%] | mortality at 500 g/ha [1] [%] | mortality at 4 ppm [2] [%] | pest or weed control at 5 µg/cm2 [3] [%] | pest or weed control at 100 g/ha [4] [%] | pest or weed control at 500 g/ha ([4]; application rate 500 g/ha (=160 pg/well)) [%] | mortality at 100 ppm [5] [%] | pest or weed control at 4 pg [6] [%] | pest or weed control at 0.02 mg [6] [%] | pest or weed control at 100 g/ha [7] [%] | pest or weed control at 5 µg/cm2, 500 g/ha [7] [%] | pest or weed control at 100 g/ha [8] [%] | pest or weed control at 500 g/ha [8] [%] | mortality at 100 g/ha [9] [%] | mortality at 100 g/ha [10] [%] | mortality at 500 g/ha ([10]; application rate 500 g/ha) [%] |
| --- | --- | --- | --- | --- | --- | --- | --- | --- | --- | --- | --- | --- | --- | --- | --- | --- |
| CC(NC(=O)c1cc(Cl)cc(S(C)(=O)=O)c1)c1nc(C(F)F)nn1-c1ncccn1 (stereo not drawn) [I-5] | 90 | 90 | 100 | 80 | 100 | 100 | 100 | 100 | 100 | – | – | – | – | – | – | – |
| CCS(=O)(=O)c1cc(Cl)cc(C(=O)N[C@@H](C)c2nc(C3CC3)nn2-c2ncc(Cl)cn2)c1 [I-24] | 100 | – | 100 | 80 | – | – | 90 | 100 | 100 | 100 | 80 | 100 | 100 | 100 | – | – |
| COc1nc([C@H](C)NC(=O)c2cc(Cl)cc(S(C)(=O)=O)c2)n(-c2ccc(Cl)cn2)n1 [I-45] | – | – | 100 | 100 | 100 | – | – | 100 | – | – | – | 90 | 90 | 100 | 90 | – |
| C[C@H](NC(=O)c1cc(C(F)F)cc(S(C)(=O)=O)c1)c1nc(C2CC2)nn1-c1ccc(C#N)cn1 [I-51] | – | – | 100 | 90 | 100 | – | 100 | 100 | – | – | – | 100 | 100 | 100 | – | – |
| C[C@H](NC(=O)c1cc(Cl)cc(S(C)(=O)=O)c1)c1nc(C2CC2)nn1-c1ncc(Cl)cn1 [I-61] | 100 | 100 | 100 | 100 | 100 | – | – | – | – | 80 | 100 | 100 | 100 | 100 | 90 | 90 |
